Data taken from patent US20040102454A1, “Phenylahistin and the phenylahistin analogs, a new class of anti-tumor compounds” (priority 1998, published 2004).
Values after ≈ are worked out from the molar mass of the structure shown. Values joined by “and” are separate entries in the source; they are usually repeats but may differ in a detail not shown here. Equal values may be shown once. Where a name gives a salt, the structure may show the parent alone. Read-outs that look alike come from different tables or passages of the source.

Columns and labels:
[1] = tested on: HT-29 human colon tumor; assay: HT-29 Human Colon Tumor Xenograft Model; format: in vivo, nude mice; conditions: CPT-11 100 ip qwx3 alone; study 2139
Method: Animals used were (exceptions are indicated for individual studies): female nude mice (nu/nu) between 5 and 6 weeks of age (˜20 g, Harlan); group size was 9-10 mice per group unless otherwise indicated. The selected novel compound was administered as monotherapy via the intraperitoneal (i.p.) route at the doses indicated for the individual study; for the combination studies the selected reference chemotherapy agents were injected 15-30 min prior to the compound. Vehicles used in these studies were: 12.5% DMSO, 5% Cremaphor and 82.5% peanut oil for the selected novel compounds; (1:3) Polysorbate 80:13% ethanol for taxotere; […] Saline dilutions are used to achieve the injection concentrations used for the reference compounds. Animals were implanted subcutaneously (s.c.) by trocar with fragments of HT-29 tumors harvested from s.c. growing tumors in nude mice hosts. […] CPT-11 was administered intraperitoneally on days 1, 8 and 15 (qw×3).

[2] = tested on: A. fumigatus isolate #1; assay: Antifungal susceptibility testing, broth dilution (NCCLS M38-A); format: cell-based; conditions: Aspergillus fumigatus, 80% reduction in turbidity
Method: (§1) Antifungal susceptibility testing was accomplished according to the methods outlined in the National Committee for Clinical Laboratory Standards, M38-A “Reference Method for Broth Dilution Antifungal Susceptibility Testing of Conidium-Forming Filamentous Fungi; Approved Standard.” This includes testing in RPMI-1640 with glutamine and without bicarbonate, an inoculum size of 0.4-5×10^4, and incubation at 30 or 35° C. for 48 hours. […] Drug concentrations were 0.03-16 μg/ml for the investigational compounds, 0.015-8 μg/ml for itraconazole and griseofulvin.
(§2) The minimum lethal concentration (MLC) was determined by plating […] from the MIC concentration and each concentration above the MIC. […] When a MIC was obtained, a minimum fungicidal concentration (MFC) was determined to assess the fungistatic/fungicidal nature of the compound. […] The compound is scored as fungistatic if the cells are able to resume growth and fungicidal if no regrowth is possible because the compound had killed the organisms.

[3] = tested on: DU-145 human prostate tumor; assay: DU-145 Human Prostate Tumor Xenograft Model; format: in vivo, nude mice; conditions: Taxotere alone
Method: Male mice were implanted s.c. by trocar with fragments of DU-145 tumors harvested from s.c. growing tumors in nude male mice hosts. When the tumors reached ˜5 mm×5 mm ( at about 13-17 days) the animals were matched into treatment and control groups. The remainder of the study proceeded as for the HT-29 model, using taxotere as the standard chemotherapy agent.
In this model unless otherwise noted for the individual study, test compound was administered via the intraperitoneal route on Days 1, 3, 5, 8 and 11 (q3d×5); taxotere was administered intravenously on Days 1, 3 and 5 (q2d×3).
The study involved an assessment of t-butyl-phenyalhistin alone and in combination with taxotere.

[4] = tested on: T. mentagrophytes isolate #1; assay: Antifungal susceptibility testing, broth dilution (NCCLS M38-A); format: cell-based, Trichophyton mentagrophytes; conditions: for MIC: 80% reduction in turbidity
Method: as §1, §2

[5] = tested on: T. mentagrophytes isolate #2; assay: as above; format: cell-based, Trichophyton mentagrophytes; conditions: 80% reduction in turbidity
Method: as §1, §2

[6] = tested on: E. floccosum isolate #1; assay: as above; format: cell-based, Epidermophyton floccosum; conditions: 80% reduction in turbidity
Method: as §1, §2

[7] = tested on: E. floccosum isolate #2; assay: as above; format: cell-based, Epidermophyton floccosum
Method: as §1, §2

[8] = tested on: T. rubrum isolate #1; assay: as above; format: cell-based, Trichophyton rubrum; conditions: T. rubrum isolate #1; for MIC: 80% reduction in turbidity
Method: as §1, §2

[9] = tested on: T. rubrum isolate #2; assay: as above; format: cell-based, Trichophyton rubrum; conditions: for MIC: 80% reduction in turbidity
Method: as §1, §2

[10] = tested on: A. fumigatus isolate #2; assay: as above; format: cell-based; conditions: Aspergillus fumigatus, 80% reduction in turbidity
Method: as §1, §2

[11] = tested on: C. glabrata; assay: as above; format: cell-based, Candida glabrata; conditions: Nakaseomyces glabratus
Method: as §1, §2

[12] = tested on: C. albicans 10231; assay: as above; format: cell-based, Candida albicans; conditions: Candida albicans, 10231
Method: as §1, §2

[13] = tested on: C. albicans 90028; assay: as above; format: cell-based, Candida albicans; conditions: Candida albicans, 90028
Method: as §1, §2

[14] = tested on: microtubules in A549 cells; assay: Immunofluorescence staining of microtubules; format: cell-based, human; conditions: 6 hours incubation
Method: Immunocytochemical staining was performed using the method described by Yahara, I. et al., Cell (1978) 15, 251-259. A549 cells were cultured on glass coverslips and incubated with the test drug for 6 hours. The cells were then fixed with 3.7% formaldehyde for 30 min, permeabilized with 0.2% Triton X-100 for 5 min, and incubated with a mouse monoclonal antibody against α-tubulin (Calbiochem®, Oncogene Research Products, Cambridge, Mass.), followed by incubation with fluorescein isothiocyanate-conjugated goat anti-mouse IgG from Cosmo Bio Co., (Tokyo, Japan), and the cells were examined under an immunofluorescent microscope.

[15] = tested on: P388 cells; assay: P388 proliferation, Alamar Blue assay; format: cell-based, murine; conditions: Mus musculus, P388; Alamar Blue assay (Table 4); read-out: IC50 for P388 Proliferation
Method: For this example, the Alamar Blue™ assay was performed as follows. Exponentially growing P388 cells were seeded into 96-well tissue culture plates (5×10^3 cells/100 μl/well) and cultured in RPMI 1640 medium supplemented with 10% fetal bovine serum for 16 h. Compounds (DMSO solution) were then added to each well at various concentrations, and the cells were cultured for an additional 48 h. Living cells were counted using Alamar Blue™ (BioSource International, Camarillo, Calif.), according to the method of Ahmed, S. A. et al., J. Immunol. Methods, 170, 211 (1994).

[16] = tested on: Microtubule protein from bovine brain; assay: Microtubule protein polymerization assay (turbidity); format: biochemical; conditions: microtubule protein 1.5 mg/ml (Table 4); read-out: IC50 for Microtubule Protein Polymerization
Method: Microtubule protein was prepared from bovine brain tissue by two cycles of assembly and disassembly according to the method of Tiwari, S. C. et al. Anal. Biochem, (1993), 215, 96-103. Tubulin was purified from microtubule protein by phosphocellulose chromatography see Algaier, J. et al. Biochim. Biophys. Acta, (1988), 954, 235-43, and tubulin purity was evaluated by polyacrylamide gel electrophoresis, as in Laemmli, U.K., Nature, (1970), […], 680-85. […] Protein concentrations were determined using the Coomassie® Protein Assay Reagent from Pierce (Rockford, Ill.).
Polymerization of microtubule protein was monitored by an increase in turbidity at 37° C. in microtubule assembly buffer containing 100 mM MES, 0.5 mM MgCl2, 1 mM EGTA and 1 mM GTP. See Johnson, K. A. et al., J. Mol. Biol., (1977), 117, 1-31. Polymerization of purified tubulin was measured using the same method except the microtubule assembly buffer contained 4 M glycerol. See Lee, J. C. et al., Biochemistry, (1975), 14, 5183-87. Microtubule protein and tubulin polymerization was initiated by a temperature shift from 0° C. to 37° C. and turbidity was measured on a DU-20 thermocontrolled spectrophotometer from Beckman (Fullerton, Calif.) at 360 nm. Drugs were dissolved in dimethyl sulfoxide (DMSO), which was used in all experiments at a final concentration of 2% (v/v).
For this example, the microtubule protein polymerization assay was performed as follows. Microtubule protein was prepared from bovine brain tissue by two cycles of assembly and disassembly. Polymerization of microtubule protein was monitored by an increase in turbidity at 37° C. in microtubule assembly buffer containing 100 mM MES, 0.5 mM MgCl2, 1 mM EGTA and 1 mM GTP. The polymerization of microtubule protein was initiated by a temperature shift from 0° C. to 37° C. Turbidity was measured on a thermo-controlled spectrophotometer (Beckman DU-20, Fullerton, Calif.) at 360 nm. Compounds were dissolved in DMSO, which was used in all experiments at a final concentration of 2% (v/v).

[17] = tested on: tubulin in Human umbilical vein endothelial cells (HuVEC); assay: Action on microtubule function, staining for α-tubulin; format: cell-based; conditions: 2 μM, thirty minutes exposure
[18] = tested on: HuVEC monolayer; assay: HuVEC monolayer permeability to FITC-Dextran; format: cell-based, human; conditions: FITC-Dextran
From the text: This vascular collapse is preceded by a rapid induction of vascular cell permeability initially to electrolytes and soon after to large molecules. The enhanced permeability of HuVEC cells to a fluorescent-labeled dextran is used as a proxy assay for vascular collapse.

[19] = tested on: MES-SA (Taxol Sensitive) human uterine sarcoma tumor cell line; assay: Drug resistant cell line pair, cytotoxicity; format: cell-based; conditions: CsA Pretreat versus No CsA
From the text: MES-SA (Taxol Sensitive) and MES-SA DX (Taxol Resistant). This cell line expresses elevated mdr-1 mRNA and P-glycoprotein (an extrusion pump mechanism). Pretreatment with cyclosporin-A (CsA) blocks P-glycoprotein and reinstates activity in the resistant cell line for those compounds for which the resistance is due to elevated P-glycoprotein.

[20] = tested on: bovine brain tubulin; assay: [^3H]CLC binding to tubulin and competition assay
Method: [^3H]CLC binding to tubulin was evaluated by the ultrafiltration method of Takahashi, M., et al., Biochim. Biophys. […] The concentration of unbound [^3H]CLC in the filtrates was determined using a EcoLite™(+) liquid scintillator from ICN Pharmaceuticals Inc. (Costa Mesa, Calif.). Specific bound [^3H]CLC concentrations were determined by adding an excess (×100) of unlabeled CLC to the reaction mixture.
For the competition assay, bovine brain tubulin (0.2 mg/ml) was incubated in the microtubule assembly buffer with 0.5 μM [^3H]CLC and various concentrations of competitors for 20 min at 37° C. [^3H]CLC binding was measured as described above.

[21] = Trichophyton mentagrophytes, read-out: MIC
[22] = Trichophyton rubrum, read-out: MIC

CCc1c2c(nc3ccc(OC(=O)N4CCC(N5CCCCC5)CC4)cc13)-c1cc3c(c(=O)n1C2)COC(=O)[C@]3(O)CC [CPT-11, irinotecan hydrochloride, reference compound]
Chemotherapeutic Agent Result TGI % [1]: 32.7%

CCC(C)n1ncn(-c2ccc(N3CCN(c4ccc(OCC5COC(Cn6cncn6)(c6ccc(Cl)cc6Cl)O5)cc4)CC3)cc2)c1=O (stereo not drawn) [itraconazole, reference compound]
MIC [2]: 1 µg/mL (≈ 1.42 µM)

CC(=O)O[C@@]12CO[C@@H]1C[C@H](O)[C@@]1(C)C(=O)[C@H](O)C3=C(C)[C@@H](OC(=O)[C@H](O)[C@@H](NC(=O)OC(C)(C)C)c4ccccc4)C[C@@](O)([C@@H](OC(=O)c4ccccc4)[C@H]21)C3(C)C [Taxotere, reference compound]
NCI established criterion for a positive effect (TGA 58%) [3]: did not reach the NCI established criterion

COC1=CC(=O)C[C@@H](C)[C@]12Oc1c(Cl)c(OC)cc(OC)c1C2=O [griseofulvin, reference compound]
MIC [4, 21]: 1 µg/mL (≈ 2.83 µM)
MIC [5, 21]: 2 µg/mL (≈ 5.67 µM)
MIC ([6]; Epidermophyton floccosum, read-out: MIC): 2 µg/mL (≈ 5.67 µM)
MFC ([7]; Epidermophyton floccosum, read-out: MICs and MFCs): 4 µg/mL (≈ 11.3 µM)
MIC [8, 22]: 0.5 µg/mL (≈ 1.42 µM)
MIC [9, 22]: < 0.015 µg/mL
MIC [10]: 0.5 µg/mL (≈ 1.42 µM)

COc1cc2c(c(OC)c1OC)-c1ccc(OC)c(=O)cc1[C@@H](NC(C)=O)CC2 [colchicine]
MIC [11]: > 128 µg/mL
MIC [12]: > 128 µg/mL
MIC [13]: > 128 µg/mL
microtubule structure (anti α-tubulin staining) [14]: staining profile similar to that of (−)-PLH-treated cells

C=CC(C)(C)c1[nH]cnc1/C=C1\NC(=O)[C@H](Cc2ccccc2)NC1=O [NPI2350]
MFC [4]: >16 µg/mL
MIC [4]: 16 µg/mL (≈ 45.7 µM)
MIC [5]: >16 µg/mL
MIC [6]: >16 µg/mL
MICs and MFCs [7]: >16 µg/mL
MIC [8]: >16 µg/mL
MFC [9]: >16 µg/mL
MIC [9]: 0.16 µg/mL (≈ 0.457 µM)

Cc1[nH]cnc1C=C1NC(=O)C(Cc2ccccc2)NC1=O (stereo not drawn) [Compound 9]
melting point: 285 to 286 °C (dec.)
IC50 [15]: 7.5 µM
IC50 [16]: > 200 µM

CC(C)(C)c1[nH]cnc1/C=C1\NC(=O)[C@H](Cc2ccccc2)NC1=O [NPI2460]
MFC [4]: >16 µg/mL
MIC [4]: 4 µg/mL (≈ 11.8 µM)
MIC [5]: >16 µg/mL
MIC [6]: >16 µg/mL
MICs and MFCs [7]: >16 µg/mL
MFC [8]: 0.125 µg/mL (≈ 0.369 µM)
MIC [8]: <0.03 µg/mL
MFC [9]: <0.03 µg/mL
MIC [9]: <0.03 µg/mL

CC(=O)O[C@H]1C(=O)[C@@]2(C)[C@H]([C@H](OC(=O)c3ccccc3)[C@]3(O)C[C@H](OC(=O)[C@H](O)[C@@H](NC(=O)c4ccccc4)c4ccccc4)C(C)=C1C3(C)C)[C@]1(OC(C)=O)CO[C@@H]1C[C@@H]2O [Taxol, paclitaxel, reference compound]
microtubule depolymerization [17]: did not induce microtubule depolymerization
HuVEC monolayer permeability [18]: inactive
Ratio No CsA [19]: 0.6 and 0.4
microtubule structure (anti α-tubulin staining) [14]: thick microtubule bundles and multiple bright fluorescent aster formation

CC[C@]1(O)C[C@@H]2CN(CCc3c([nH]c4ccccc34)[C@@](C(=O)OC)(c3cc4c(cc3OC)N(C)[C@H]3[C@@](O)(C(=O)OC)[C@H](OC(C)=O)[C@]5(CC)C=CCN6CC[C@]43[C@@H]65)C2)C1 [VLB, vinblastine, reference compound]
effect on CLC binding to tubulin [20]: slightly enhanced
